The term IC50 denotes the point on the concentration scale where inhibition reaches its midpoint. What is called Cmax is the maximum level reached in the sampled fluid or tissue. As usually defined, the AUC(0-inf) is the area under the concentration-time curve extrapolated to infinity. A high value points to more exposure.

In series [1] the target is Phosphatidylinositol 4,5-bisphosphate 3-kinase catalytic subunit alpha isoform (Homo sapiens, UniProt P42336). Description: Inhibition of PI3K-alpha (unknown origin) by mobility shift assay.
The nature of series [2]: Cmax in rat at 5 mg/kg, po. It is filed as ADME, organism-based. Also on record: dose 5 mg/kg, route oral. To be noted: in vivo.
Series [3] can be described thus: AUC (0 to infinity) in rat at 5 mg/kg, po. The following applies: in vivo. Also on record: dose 5 mg/kg, time infinity, route oral. It is filed as ADME, organism-based.
The nature of series [4]: Metabolic stability in rat S9 fraction assessed as compound remaining measured at 60 mins. In kind it is ADME. To be noted: read-out: Stability.
The nature of series [5]: cells. The following applies: Homo sapiens, PC-3, 1 h.
Series [6] is filed under the species Mus musculus. Description: animal or person. To be noted: PC-3, po, 4 h, read-out: INH.
For series [7], the species on record is Mus musculus. The series is described as follows: animal or person. To be noted: PC-3, po, 8 h, read-out: INH.
For series [8], the species on record is Mus musculus. Description: animal or person. To be noted: PC-3, po, 24 h, read-out: INH.
The species named for series [9] is Mus musculus. The series is described as follows: animal or person. To be noted: PC-3, po, 4 h, read-out: INH. This is another data set of the same source.
For series [10], the species on record is Mus musculus. The series is described as follows: animal or person. The following applies: PC-3, po, 8 h, read-out: INH. The source holds these as a separate data set.
For series [11], the species on record is Mus musculus. Description: animal or person. The following applies: PC-3, po, 24 h, read-out: INH. This is another data set of the same source.

Phosphatidylinositol 4,5-bisphosphate 3-kinase catalytic subunit alpha isoform, sequence (P42336 whole entry, canonical isoform): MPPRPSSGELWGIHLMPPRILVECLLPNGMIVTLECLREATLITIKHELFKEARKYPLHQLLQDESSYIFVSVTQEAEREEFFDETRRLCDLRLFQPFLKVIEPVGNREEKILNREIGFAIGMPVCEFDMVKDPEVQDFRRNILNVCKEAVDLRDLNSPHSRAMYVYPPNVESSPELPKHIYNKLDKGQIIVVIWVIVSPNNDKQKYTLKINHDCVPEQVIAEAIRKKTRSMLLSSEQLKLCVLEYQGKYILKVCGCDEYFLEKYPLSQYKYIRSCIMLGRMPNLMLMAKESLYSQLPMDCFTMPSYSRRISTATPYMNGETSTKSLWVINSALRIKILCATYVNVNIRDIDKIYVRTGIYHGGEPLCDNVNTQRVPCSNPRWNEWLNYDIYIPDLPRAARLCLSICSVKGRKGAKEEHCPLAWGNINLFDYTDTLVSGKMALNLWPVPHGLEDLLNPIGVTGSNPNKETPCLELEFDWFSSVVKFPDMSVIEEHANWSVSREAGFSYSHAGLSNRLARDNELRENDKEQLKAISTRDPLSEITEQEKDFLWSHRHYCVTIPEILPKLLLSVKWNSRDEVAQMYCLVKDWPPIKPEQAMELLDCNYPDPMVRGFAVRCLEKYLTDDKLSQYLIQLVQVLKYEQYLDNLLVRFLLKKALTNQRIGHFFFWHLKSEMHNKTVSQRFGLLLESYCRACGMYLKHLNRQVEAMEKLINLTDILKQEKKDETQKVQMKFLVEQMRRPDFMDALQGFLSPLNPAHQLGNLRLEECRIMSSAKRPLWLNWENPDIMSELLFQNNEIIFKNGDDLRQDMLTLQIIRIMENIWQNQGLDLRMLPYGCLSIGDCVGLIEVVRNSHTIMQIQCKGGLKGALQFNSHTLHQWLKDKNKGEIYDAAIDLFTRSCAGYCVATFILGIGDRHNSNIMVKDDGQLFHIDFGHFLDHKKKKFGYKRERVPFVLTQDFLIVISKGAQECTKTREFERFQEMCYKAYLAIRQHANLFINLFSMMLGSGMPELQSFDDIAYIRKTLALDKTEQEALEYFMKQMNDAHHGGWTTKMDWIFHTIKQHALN

In the case of `O=C1CN(CCC2CCOCC2)c2nc(-c3ccc(-c4nc[nH]n4)nc3)cnc2N1`, the IC50 in series [1] was found to be 1600 nM.
`CC(C)(O)c1ccc(-c2cnc3c(n2)N([C@H]2CC[C@H](O)CC2)C(=O)CN3)cn1`: in series [1], the IC50 turned out to be 1900 nM. Further, the peak level in series [2] (Cmax) was 2200 nM. In addition, the AUC(0-inf) in series [3] was 9.23 µM·h.
For `CC(C)(O)c1ccc(-c2cnc3c(n2)N(C2CCOCC2)CC(=O)N3)cn1`, in series [1], the IC50 was 4700 nM.
Turning to `CO[C@H]1CC[C@H](CN2CC(=O)Nc3ncc(-c4ccc(C(C)(C)O)nc4)nc32)CC1`, the IC50 in [1] came to 20200 nM; in series [5] it was 160 nM. In series [4], the remaining at 1 h is 77%. For the same compound, in series [2], the Cmax turned out to be 700 nM. The compound further showed an AUC(0-inf) in [3] of 7.25 µM·h. Further, the inhibition in vivo at 100 mg/kg is 80% in series [6]; 64% in series [7]; 0% in series [8]; 55% in [9]; 55% in [10]; 0% in [11].
On to `COCCN1C(=O)CNc2ncc(-c3ccc(C(C)(C)O)nc3)nc21`, for which the half-inhibitory concentration (IC50) came to 6200 nM in series [1] and 610 nM in [5]. In addition, the remaining at 1 h in series [4] came out at 89%. This compound came in with a Cmax in series [2] of 5600 nM. In series [3], the area under the curve AUC(0-inf) is 29 µM·h. The inhibition in vivo at 100 mg/kg in [6] is 82%; in series [7], 91%; in series [8], 91%; in [9] it was 87%; in series [10] it was 84%; in series [11] it was 77%.
As for `CC(C)(O)c1ccc(-c2cnc3c(n2)N(C2CCOCC2)C(=O)CN3)cn1`, in series [1], the half-maximal inhibitory concentration (IC50) was 3200 nM.
As for `COCCN1CC(=O)Nc2ncc(-c3ccc(C(C)(C)O)nc3)nc21`, in [1], the 50% inhibitory concentration (IC50) amounted to 10500 nM.
With `CC(C)(O)c1ccc(-c2cnc3c(n2)N(CC2CCCCC2)CC(=O)N3)cn1`, the IC50 in series [1] turned out to be 17700 nM. Further, the remaining at 1 h in series [4] amounted to 16%.
Consider `CC(C)(O)c1ccc(-c2cnc3c(n2)N([C@H]2CC[C@@H](O)CC2)C(=O)CN3)cn1`, for which the IC50 in series [1] amounted to 2800 nM.
`Cc1cc(-c2nc[nH]n2)ccc1-c1cnc2c(n1)N(CCC1CCOCC1)C(=O)CN2`: the IC50 in [1] was found to be 120 nM.
For the compound `CC(C)(O)c1ccc(-c2cnc3c(n2)N(CC2CCOCC2)C(=O)CN3)cn1`, the half-inhibitory concentration (IC50) was 3800 nM in [1] and 130 nM in [5]. Further, in [4], the remaining at 1 h worked out at 83%. This compound had a Cmax in series [2] of 1600 nM. In series [3], this compound registered an AUC(0-inf) of 9.9 µM·h. The inhibition in vivo at 100 mg/kg in [6] was 93%; in series [7] it was 94%; in series [8] it was 91%; in series [9] it was 86%; in [10] it was 81%; in series [11], 80%.
On to `CO[C@H]1CC[C@H](CN2C(=O)CNc3ncc(-c4ccc(C(C)(C)O)nc4)nc32)CC1`, for which the 50% inhibitory concentration (IC50) in series [1] was found to be 4700 nM. In series [4], the remaining at 1 h turned out to be 55%.
With `O=C1CNc2ncc(-c3ccc(-c4ncn[nH]4)cc3)nc2N1CCC1CCOCC1`, the half-maximal inhibitory concentration (IC50) in series [1] was found to be 100 nM. The remaining at 1 h in series [4] worked out at 48%.
For the compound `CO[C@H]1CC[C@@H](CN2C(=O)CNc3ncc(-c4ccc(C(C)(C)O)nc4)nc32)CC1`, in series [1], the IC50 is 2500 nM.
For the compound `CO[C@H]1CC[C@@H](CN2CC(=O)Nc3ncc(-c4ccc(C(C)(C)O)nc4)nc32)CC1`, the IC50 in [1] was found to be 7600 nM. The remaining at 1 h in [4] amounted to 39%.
As for `Cc1cc(-c2nc[nH]n2)ccc1-c1cnc2c(n1)N(CCC1CCOCC1)CC(=O)N2`, in series [1], the IC50 is 200 nM.

The values above are taken from ChEMBL document CHEMBL3585315, “Discovery of mammalian target of rapamycin (mTOR) kinase inhibitor CC-223” (J Med Chem, 2015).
